Results on 15 compounds are retold here after paper PMC11434980, “Deciphering Chemical Rules for Drug Penetration into Strongyloides” (Pharmaceutics, 2024).

Entries after “also recorded” stand apart in the source; their conditions may differ. Where two headings read alike, the source gives them in different places. Some results are limits rather than exact numbers.

The term mortality denotes the percentage killed.

In data set [1] the test system is S. venezuelensis L3s. Kind of data set: Staining (uptake) of L3 larvae by the dyes. The data set is classed as cell-based, Strongyloides venezuelensis. The note with it: for lowest staining concentration (Conc): 72 h. The method, then:
(§1) Baerman-obtained S. venezuelensis L3s were rinsed twice with distilled water and counted, and 100 to 150 larvae were placed per well in 96-well flat-bottom culture plates. Larvae were incubated at 28 °C for 30 min to allow adaptation and treated with compounds in the range of 0.5–40 µM for 72 h at 28 °C in a humid atmosphere. Mortality was assessed as the lack of any movement detected during 1 min of observation under an inverted microscope (40×), at 24, 48, and 72 h after treatment. The ability to stain the larvae was pointed out when observed; at 72 h, larvae were collected and washed two times with distilled water and placed in a new well to remove the background color and photographed. Pictures were also taken at 24 and 48 h without cleaning the larvae so as not to interfere with the 72 h readout of the experiment. […] All experiments were conducted in triplicate and at least three different times. The antiparasitic activity of the compounds was expressed as the concentration that inhibited the motility of half of the larvae (immobilization concentration 50, IC50).

In data set [2] the test system is S. venezuelensis L3s. Description: microbe, parasite or virus in culture. The note with it: for significant activity against the L3s: L3 motility, 72 h of treatment. As for the experimental part:
as §1
A total of 15 dyes were tested against S. venezuelensis L3s at a 20 µM concentration. The activity was determined by the number of larvae lacking motility relative to the total number in the well after 1 min of light excitation at 24, 48, and 72 h after treatment.

Data set [3] concerns parasitic females of S. venezuelensis. Description: In vitro activity against adult females (movement categories). The note with it: for Activity against Adults @10 µM 72 h: adult females; for Activity against parasitic females 1 h / Activity against parasitic females 24 h / Activity against parasitic females 48 h / Activity against parasitic females 72 h / effect on adult females: 10 µM, 50–70 worms per well. The data set is classed as cell-based, Strongyloides venezuelensis. The method, then:
Seven to nine days after infection, the mice or rats were euthanized and the small intestine was removed, sliced longitudinally, minced, and placed in a sedimentation cup wrapped in 8 layers of gauze in phosphate-buffered solution (PBS) for two hours at 37 °C. Parasitic females were collected from the sediment and washed twice with saline solution (NaCl 0.15 mol/L) and twice with Roswell Park Memorial Institute 1640 (RPMI 1640) (Gibco, Whaltman, MA, USA) supplemented with 10% heat-inactivated FBS, 100 µg/mL streptomycin, and 100 U/mL penicillin (Gibco, Whaltman, MA, USA) to avoid contamination during the in vitro assays. After collection, females were placed in 96-well plates with supplemented RPMI medium and kept at 37 °C. We tested three different female population densities to explore the effects on the measured activity: 1–3 females, 10–15 females, and 50–70 females per well. At 24 h after plating, the compounds were applied at 10 µM and the anti-parasitic activity was evaluated at 1, 24, 48, and 72 h after treatment based on movement for 30 s observation periods under the microscope (40×). […] All experiments were conducted in duplicate and at least three different times. […]

In data set [4] the test system is HeLa (human cervical cancer) cell line. Kind of data set: Cytotoxicity, MTT method. The data set is classed as cell-based. The note with it: MTT; for IC50: HeLa cells, 72 h, read-out: HeLa IC50 (antiproliferative activity / cytotoxicity). As for the experimental part: (§2) A cytotoxicity test was performed using the HeLa (human cervical cancer) cell line according to the MTT method. Cells were from the ATCC (Manassas, VA, USA). They were cultured at 37 °C in sub-confluent conditions under a 95% humidified atmosphere and 5% CO2 in Dulbecco’s Modified Eagle Medium (DMEM) (Gibco, Whaltman, MA, USA) supplemented with 10% heat-inactivated FBS, 2 mM L-glutamine, 100 U/mL penicillin, and 100 µg/mL streptomycin. […] The antiproliferative activity was measured in triplicate after 72 h using the MTT (3-(4,5-dimethylthiazol-2-yl)-2,5-diphenyltetrazolium bromide) Cell Proliferation Kit (Roche, Boston, MA, USA), following the manufacturer’s specifications. […] The selectivity index (SI = HeLa IC50/L3 IC50) for each compound was calculated to compare the antiparasitic activity with its respective human cell cytotoxicity.
(Tetrazolium dyes change colour on reduction, which living cells bring about.)

Data set [5] relates to parasitic females of S. venezuelensis. Kind of data set: Staining of adult females by the dyes. Format: cell-based, Strongyloides venezuelensis. The note with it: 10 µM; for Staining (Time): time at which staining of females was seen.
Data set [6] is described as follows: Cytotoxicity, MTT method. The note with it: human; HeLa cells, 72 h, MTT; read-out: HeLa IC50 (antiproliferative activity / cytotoxicity). The data set is classed as cell-based, human. The method, then:
as §2

[7] abbreviates: L3S, 72 h, read-out: IC50 72 h (L3).
Setting [8] is: read-out: IC50 72 h (immobilization concentration 50 of cultured L3s), L3s, 72 h.
The mark [9] stands for this setting: read-out: IC50 24 h (immobilization concentration 50 of cultured L3s), L3s, 24 h.
Setting [10] is: read-out: IC50 48 h (immobilization concentration 50 of cultured L3s), L3s, 48 h.

In the case of `Cc1c(C(=O)O)c(O)cc2c1C(=O)c1c(O)c(C3O[C@H](CO)[C@@H](O)[C@H](O)[C@H]3O)c(O)c(O)c1C2=O` (stereo in doubt) [Carmine], the “Staining 72 h (L3 staining ability)” value in data set [1] is reported as “No”. Also, the “significant activity against the L3s” value in data set [2] is reported as “did not show significant activity”. Moreover, the “Screening 20 µM 72 h” value in data set [2] (L3s, 72 h) was “No”.
Take `Cc1ccc2nc(NC(=O)c3cccnc3)sc2c1` [Compound 20, N-(6-methylbenzo[d]thiazol-2-yl)nicotinamide]: the “Activity against Adults @10 µM 72 h” value in data set [3] is “did not show any potency; also recorded: Healthy”. In addition, the “antiproliferative activity against HeLa cells at 10 µM” value in data set [4] is on record as “no antiproliferative activity”. Moreover, the IC50 in data set [2] (setting [7]) was > 20 µM. Moreover, the “Activity against L3 @20 µM 72 h” value in data set [2] (L3s, 72 h) was “did not show any activity and no in vitro activity and No”.
Take `Oc1ccc2ccccc2c1N=Nc1ccc(N=Nc2ccccc2)cc1` [Sudan III]: the “Staining 72 h (L3 staining ability)” value in data set [1] is “No”. Besides, in data set [2], the “significant activity against the L3s” value is reported as “did not show significant activity”. The “Screening 20 µM 72 h” value in data set [2] (L3s, 72 h) is listed as “No”. In data set [2] (setting [8]), the IC50 was > 40 µM.
With `Cc1cc(C(=C2C=CC(=N)C=C2)c2ccc(N)cc2)ccc1N` [Fuchsine], in data set [1], the “Staining 72 h (L3 staining ability)” value is reported as “Yes” and the “lowest staining concentration (Conc)” value is reported as 2 µM. In addition, in data set [3], the “Activity against parasitic females 1 h” value was “Healthy”, the “Activity against parasitic females 24 h” value is listed as “Healthy”, the “Activity against parasitic females 48 h” value was “Healthy” and the “Activity against parasitic females 72 h” value is “Healthy”. In data set [4], the IC50 was found to be 1 µM. Also, in data set [5], the “Staining of parasitic females” value was “No” and the “staining of adult females” value is “did not stain”. Also, the “Screening 20 µM 72 h” value in data set [2] (L3s, 72 h) is “Active”. The IC50 in data set [2] (setting [9]) came to 7.4 ± 1.3 µM. In addition, in data set [2] (setting [10]), the IC50 amounted to 6.8 ± 0.9 µM. Besides, the IC50 in data set [2] (setting [8]) was 3.2 ± 0.4 µM.
Regarding `CCCCCCCCCCCCCCCCCCOCC(COP(=O)([O-])OCC[N+](C)(C)C)OC` (stereo not drawn) [Edelfosine], the “Screening 20 µM 72 h” value in data set [2] (L3s, 72 h) is recorded as “No”.
As to `CN(C)c1ccc(N=Nc2ccc(S(=O)(=O)[O-])cc2)cc1.[Na+]` [Methyl Orange], the “Staining 72 h (L3 staining ability)” value in data set [1] is listed as “No”. Moreover, in data set [2], the “significant activity against the L3s” value was “did not show significant activity”. Also, in data set [2] (L3s, 72 h), the “Screening 20 µM 72 h” value is “No”. The IC50 in data set [2] (setting [8]) is > 40 µM.
In the case of Brilliant Cresyl Blue, in data set [1], the “Staining 72 h (L3 staining ability)” value is “Yes” and the “lowest staining concentration (Conc)” value was 2.5 µM. In addition, in data set [3], the “effect on adult females” value was “significantly affected”, the “Activity against parasitic females 1 h” value is “Healthy”, the “Activity against parasitic females 24 h” value is reported as “Slightly affected” and the “Activity against parasitic females 48 h” value was “Affected”. Moreover, the “Activity against parasitic females 72 h” value in data set [3] is “Affected”. In addition, the IC50 in data set [4] was > 250 µM. For the same compound, in data set [5], the “Staining of parasitic females” value is “Yes”, the “staining of adult females” value was “stained adult females after 24 h in some localized structures” and the “Staining (Time)” value was 24 h. Besides, the “Screening 20 µM 72 h” value in data set [2] (L3s, 72 h) was “Active”. The IC50 in data set [2] (setting [9]) was 14 ± 4.1 µM. The IC50 in data set [2] (setting [10]) came out at 9.6 ± 0.6 µM. Further, the IC50 in data set [2] (setting [8]) turned out to be 6.8 ± 0.7 µM.
With `CC(=O)Oc1ccc2c(c1)Oc1cc(OC(C)=O)ccc1C21OC(=O)c2ccccc21` [Fluorescein Diacetate], the “Staining 72 h (L3 staining ability)” value in data set [1] is recorded as “No”. In addition, in data set [2], the “significant activity against the L3s” value was “did not show significant activity”. In addition, the “Screening 20 µM 72 h” value in data set [2] (L3s, 72 h) is “No”.
Turning to `Oc1cc2c(cc1O)[C@@H]1c3ccc(O)c(O)c3OC[C@]1(O)C2` [Hematoxylin], in data set [1], the “Staining 72 h (L3 staining ability)” value is “No”. Besides, the “significant activity against the L3s” value in data set [2] is recorded as “did not show significant activity”. Further, the “Screening 20 µM 72 h” value in data set [2] (L3s, 72 h) is recorded as “No”.
Take `Nc1c(/N=N/c2ccc(-c3ccc(/N=N/c4cc(S(=O)(=O)O)c5ccccc5c4N)cc3)cc2)cc(S(=O)(=O)O)c2ccccc12` [Congo Red]: the “Staining 72 h (L3 staining ability)” value in data set [1] is given as “No”. Also, in data set [2], the “significant activity against the L3s” value is on record as “did not show significant activity”. In data set [2] (L3s, 72 h), the “Screening 20 µM 72 h” value was “No”.
With `Cc1cc(-c2ccc(/N=N/c3c(S(=O)(=O)O)cc4cc(S(=O)(=O)O)cc(N)c4c3O)c(C)c2)ccc1/N=N/c1c(S(=O)(=O)O)cc2cc(S(=O)(=O)O)cc(N)c2c1O` [Trypan Blue], in data set [1], the “Staining 72 h (L3 staining ability)” value is “Yes” and the “lowest staining concentration (Conc)” value is listed as 20 µM. Moreover, in data set [6], the IC50 at 72 h was > 10 µM. For the same compound, the “significant activity against the L3s” value in data set [2] is on record as “did not show significant activity”.
With `O=[N+]([O-])c1ccc2c(N=Nc3ccc4ccccc4c3O)c(O)cc(S(=O)(=O)[O-])c2c1.[Na+]` [Eriochrome Black T], the “Staining 72 h (L3 staining ability)” value in data set [1] was “No”. The “significant activity against the L3s” value in data set [2] is recorded as “did not show significant activity”. For the same compound, in data set [2] (L3s, 72 h), the “Screening 20 µM 72 h” value is on record as “No”. Further, the IC50 in data set [2] (setting [8]) is > 40 µM.
Take `O=C1/C(=C2\Nc3ccc(S(=O)(=O)[O-])cc3C2=O)Nc2ccc(S(=O)(=O)[O-])cc21.[Na+].[Na+]` [Indigo Carmine]: the “Staining 72 h (L3 staining ability)” value in data set [1] was “No”. The “significant activity against the L3s” value in data set [2] is on record as “did not show significant activity”. Also, the “Screening 20 µM 72 h” value in data set [2] (L3s, 72 h) is given as “No”. Further, the IC50 in data set [2] (setting [8]) is > 40 µM.
As for `Cc1ccc2nc(NC(=O)c3ccc(N4CCN(C)CC4)nc3)sc2c1` [Compound 22, N-(6-methylbenzo[d]thiazol-2-yl)-6-(4-methylpiperazin-1-yl)nicotinamide], the “Activity against Adults @10 µM 72 h” value in data set [3] is recorded as “slightly affecting but not killing; also recorded: Slightly affected”. The “antiproliferative activity against HeLa cells at 10 µM” value in data set [4] was “no antiproliferative activity”. For the same compound, the IC50 in data set [2] (setting [7]) was 8.6 ± 2.3 µM. Also, the mortality at 20 µM in data set [2] (L3S, 72 h, read-out: L3 mortality rate) was 100%. Moreover, the “Activity against L3 @20 µM 72 h” value in data set [2] (L3s, 72 h) is given as “Yes”.
`CC[N+](C)(CC)CCC[n+]1c(-c2ccccc2)c2cc(N)ccc2c2ccc(N)cc21.[I-].[I-]` [Propidium Iodide]: in data set [1], the “Staining 72 h (L3 staining ability)” value is “Yes” and the “lowest staining concentration (Conc)” value is listed as 3 µM. Besides, in data set [3], the “effect on adult females” value was “significantly affected”, the “Activity against parasitic females 1 h” value was “Slightly affected”, the “Activity against parasitic females 24 h” value is reported as “Slightly affected” and the “Activity against parasitic females 48 h” value is recorded as “Slightly affected”. For the same compound, in data set [3], the “Activity against parasitic females 72 h” value is on record as “Affected/Some deaths”. In data set [5], the “Staining of parasitic females” value is “Yes”, the “staining of adult females” value is on record as “living worms were not strongly stained” and the “Staining (Time)” value was found to be 72 h. Besides, in data set [2] (L3s, 72 h), the “Screening 20 µM 72 h” value is reported as “Active”. Besides, in data set [2] (setting [9]), the IC50 amounted to 14.5 ± 4.6 µM. Moreover, in data set [2] (setting [10]), the IC50 was 9.8 ± 3.2 µM. In data set [2] (setting [8]), the IC50 was 4.3 ± 0.6 µM.
